Measured values as given in ChEMBL document CHEMBL5352412, “Discovery of 1,2-diphenylethene derivatives as human DNA topoisomerase II catalytic inhibitors and antitumor agents” (Eur J Med Chem, 2022).
pIC50: −log10 of the molar value.

Assays:
[1] = molecular target: T1, DNA topoisomerase 2-alpha (Homo sapiens, UniProt P11388); test: Inhibition of human topoisomerase 2-alpha assessed as reduction in relaxation of pBR322 DNA at 25 uM measured after 30 mins by agarose gel electrophoresis method relative to control
T1 sequence (P11388 whole entry): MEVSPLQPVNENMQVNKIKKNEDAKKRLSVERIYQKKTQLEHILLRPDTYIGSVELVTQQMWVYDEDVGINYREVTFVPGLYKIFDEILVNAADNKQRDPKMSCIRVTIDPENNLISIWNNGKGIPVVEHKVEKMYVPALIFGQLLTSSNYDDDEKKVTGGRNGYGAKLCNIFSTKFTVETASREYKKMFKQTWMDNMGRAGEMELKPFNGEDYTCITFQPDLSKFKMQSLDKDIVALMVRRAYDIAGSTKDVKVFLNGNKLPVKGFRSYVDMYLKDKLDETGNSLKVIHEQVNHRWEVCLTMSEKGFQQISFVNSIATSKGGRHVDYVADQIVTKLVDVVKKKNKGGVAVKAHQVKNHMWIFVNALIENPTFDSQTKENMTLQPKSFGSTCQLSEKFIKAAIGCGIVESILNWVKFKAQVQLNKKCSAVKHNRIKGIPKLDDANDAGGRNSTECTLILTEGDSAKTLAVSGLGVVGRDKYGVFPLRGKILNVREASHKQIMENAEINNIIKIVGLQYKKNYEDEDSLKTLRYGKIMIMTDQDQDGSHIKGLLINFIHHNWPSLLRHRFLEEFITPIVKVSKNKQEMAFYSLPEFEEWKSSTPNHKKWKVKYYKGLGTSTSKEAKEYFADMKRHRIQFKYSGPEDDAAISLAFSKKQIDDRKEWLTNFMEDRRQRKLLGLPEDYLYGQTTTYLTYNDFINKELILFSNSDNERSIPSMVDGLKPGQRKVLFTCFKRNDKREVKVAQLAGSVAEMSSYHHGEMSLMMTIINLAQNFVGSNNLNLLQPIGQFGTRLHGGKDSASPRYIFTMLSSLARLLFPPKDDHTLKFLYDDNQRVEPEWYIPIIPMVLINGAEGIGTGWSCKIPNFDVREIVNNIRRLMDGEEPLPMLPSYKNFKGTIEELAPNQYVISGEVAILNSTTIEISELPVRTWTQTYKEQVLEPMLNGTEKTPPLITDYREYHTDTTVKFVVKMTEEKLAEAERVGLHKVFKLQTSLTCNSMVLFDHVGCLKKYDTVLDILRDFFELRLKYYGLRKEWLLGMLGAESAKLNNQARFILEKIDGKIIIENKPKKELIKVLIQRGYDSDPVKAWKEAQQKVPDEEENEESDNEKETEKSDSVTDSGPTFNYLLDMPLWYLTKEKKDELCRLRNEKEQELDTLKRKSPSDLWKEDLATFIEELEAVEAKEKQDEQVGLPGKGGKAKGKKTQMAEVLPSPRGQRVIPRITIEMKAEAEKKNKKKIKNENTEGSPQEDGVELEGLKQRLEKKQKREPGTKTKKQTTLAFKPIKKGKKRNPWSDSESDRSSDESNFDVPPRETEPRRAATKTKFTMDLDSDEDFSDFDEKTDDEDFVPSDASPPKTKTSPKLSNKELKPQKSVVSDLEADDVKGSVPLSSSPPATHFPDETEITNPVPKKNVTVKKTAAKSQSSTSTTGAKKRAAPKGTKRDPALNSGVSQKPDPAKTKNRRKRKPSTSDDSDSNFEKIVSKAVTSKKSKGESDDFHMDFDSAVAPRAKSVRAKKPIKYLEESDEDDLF

HepG2 = test: Antiproliferative activity against human HepG2 cells incubated for 72 hrs by CCK8 assay; type: functional, cell-based; conditions: Homo sapiens, HepG2, 72 h
[2] = molecular target: T1, DNA topoisomerase 2-alpha; test: Inhibition of human topoisomerase 2-alpha assessed as reduction in relaxation of pBR322 DNA at 100 uM measured after 30 mins by agarose gel electrophoresis method relative to control
MDA-MB-231 = test: Antiproliferative activity against human MDA-MB-231 cells incubated for 72 hrs by CCK8 assay; type: functional, cell-based; conditions: Homo sapiens, MDA-MB-231, 72 h
[3] = molecular target: T1, DNA topoisomerase 2-alpha; test: Inhibition of human topoisomerase 2-alpha assessed as reduction in relaxation of pBR322 DNA measured after 30 mins by agarose gel electrophoresis method

## O=C(CCc1ccccc1)Nc1ccc(-c2nc3ccc(O)cc3s2)cc1
[1]
  inhibition: 7.5%
HepG2
  pIC50: 5.40
[2]
  inhibition: 86.8%
MDA-MB-231
  pIC50: 4.92

## O=C(CCc1ccccc1)Nc1ccc(/C=C/c2cc(O)cc(O)c2)cc1
[1]
  inhibition: 16.4%
HepG2
  pIC50: 4.84
[2]
  inhibition: 62.5%
MDA-MB-231
  pIC50: 4.47

## O=C(/C=C/c1cc(/C=C/c2cc(O)cc(O)c2)ccc1O)N1CCCCC1
[1]
  inhibition: 7.1%
HepG2
  pIC50: 4.52
[2]
  inhibition: 84.5%
MDA-MB-231
  pIC50: 4.78

## Oc1cc(O)cc(/C=C/c2ccc(-c3ccoc3)cc2)c1
[1]
  inhibition: 30.4%
HepG2
  pIC50: 4.61
[2]
  inhibition: 66.1%
MDA-MB-231
  pIC50: 4.56

## Oc1cc(O)cc(/C=C/c2ccc(-c3cccc(O)c3)cc2)c1
[1]
  inhibition: 63.2%
HepG2
  pIC50: 4.74
[2]
  inhibition: 82.9%
MDA-MB-231
  pIC50: 4.95

## Oc1cc(O)cc(/C=C/c2cc(-c3cccc(O)c3)ccc2O)c1
[1]
  inhibition: 79.3%
HepG2
  pIC50: 4.54
[2]
  inhibition: 90.7%
MDA-MB-231
  pIC50: 4.51

## Oc1cc(O)cc(/C=C/c2ccc(-c3ccccc3)cc2)c1
[1]
  inhibition: 12.2%
HepG2
  pIC50: 4.74
[2]
  inhibition: 81.2%
MDA-MB-231
  pIC50: 4.98

## Oc1cc(O)cc(/C=C/c2cc(-c3ccccc3)ccc2O)c1
[1]
  inhibition: 81.3%
HepG2
  pIC50: 5.02
[2]
  inhibition: 87.9%
MDA-MB-231
  pIC50: 5.14

## Oc1cc(O)cc(/C=C/c2cc(-c3ccoc3)ccc2O)c1
[1]
  inhibition: 21.3%
HepG2
  pIC50: 4.69
[3]
  pIC50: 4.22
[2]
  inhibition: 82.1%
MDA-MB-231
  pIC50: 4.70

## Oc1cc(O)cc(/C=C/c2ccc(O)c(-c3ccoc3)c2)c1
[1]
  inhibition: 12.6%
HepG2
  pIC50: 4.43
[2]
  inhibition: 77.4%
MDA-MB-231
  pIC50: 4.58

## Oc1ccc(-c2ccc(/C=C/c3cc(O)cc(O)c3)cc2)cc1
[1]
  inhibition: 57.1%
HepG2
  pIC50: 4.97
[2]
  inhibition: 83.8%
MDA-MB-231
  pIC50: 5.11

## O=C(/C=C/c1ccccc1)Nc1cc(/C=C/c2cc(O)cc(O)c2)ccc1O
[1]
  inhibition: 79.5%
HepG2
  pIC50: 4.61
[2]
  inhibition: 94.5%
MDA-MB-231
  pIC50: 4.87

## O=C(/C=C/c1ccc(/C=C/c2cc(O)cc(O)c2)cc1)N1CCCCC1
[1]
  inhibition: 6.9%
HepG2
  pIC50: 4.85
[2]
  inhibition: 71.1%
MDA-MB-231
  pIC50: 5.24

## O=[N+]([O-])c1cccc(-c2ccc(/C=C/c3cc(O)cc(O)c3)cc2)c1
[1]
  inhibition: 55.3%
HepG2
  pIC50: 4.79
[2]
  inhibition: 68.7%
MDA-MB-231
  pIC50: 4.94

## C/C=C/C(=O)Nc1cc(/C=C/c2cc(O)cc(O)c2)ccc1O
[1]
  inhibition: 0.2%
HepG2
  pIC50: 4.49
[2]
  inhibition: 9.9%
MDA-MB-231
  pIC50: 4.68

## Oc1cc(O)cc(/C=C/c2ccc(O)c(-c3ccsc3)c2)c1
[1]
  inhibition: 15.2%
HepG2
  pIC50: 4.47
[2]
  inhibition: 86.8%
MDA-MB-231
  pIC50: 4.65

## C/C=C/C(=O)Nc1ccc(/C=C/c2cc(O)cc(O)c2)cc1
[1]
  inhibition: 0.4%
HepG2
  pIC50: 5.34
[2]
  inhibition: 12.5%
MDA-MB-231
  pIC50: 5.42

## Oc1ccc(-c2ccc(O)c(/C=C/c3cc(O)cc(O)c3)c2)cc1
[1]
  inhibition: 75.4%
HepG2
  pIC50: 4.52
[2]
  inhibition: 86.3%
MDA-MB-231
  pIC50: 4.81

## CCCNC(=O)/C=C/c1ccc(/C=C/c2cc(O)cc(O)c2)cc1
[1]
  inhibition: 26.8%
HepG2
  pIC50: 4.63
[2]
  inhibition: 65.9%
MDA-MB-231
  pIC50: 5.11

## O=C(/C=C/c1ccccc1)Nc1ccc(-c2nc3ccc(O)cc3s2)cc1
[1]
  inhibition: 43.2%
HepG2
  pIC50: 5.28
[2]
  inhibition: 87.4%
MDA-MB-231
  pIC50: 4.80

## Oc1cc(O)cc(/C=C/c2ccc(-c3ccsc3)cc2)c1
[1]
  inhibition: 63.2%
HepG2
  pIC50: 4.50
[2]
  inhibition: 78.5%
MDA-MB-231
  pIC50: 4.72

## Oc1cc(O)cc(/C=C/c2cc(-c3ccsc3)ccc2O)c1
[1]
  inhibition: 75.2%
HepG2
  pIC50: 5.09
[2]
  inhibition: 88.4%
MDA-MB-231
  pIC50: 5.02

## O=[N+]([O-])c1cccc(-c2ccc(O)c(/C=C/c3cc(O)cc(O)c3)c2)c1
[1]
  inhibition: 75.4%
HepG2
  pIC50: 4.73
[2]
  inhibition: 95.5%
MDA-MB-231
  pIC50: 4.90

## COc1cc(CCc2ccc(NC(=O)CCc3ccccc3)cc2)cc(OC)c1
HepG2
  pIC50: 5.46
[2]
  inhibition: 1.2%
MDA-MB-231
  pIC50: 4.92
